Test results as given in patent US10759812B2, “Thienopyrimidine derivative and use thereof in medicine” (SUNSHINE LAKE PHARMA CO., LTD., priority 2017, dated 2020).

Columns and labels:
ACC1 = ACC1 (Homo sapiens (Human), UniProt Q13085); experiment: Acetyl-CoA carboxylase inhibition activity assay in vitro (ADP-Glo kinase assay), ACC1; format: biochemical; conditions: 1 nM ACC1, 5% DMSO, 25° C.
Description: (§1) The inhibitory action of the compounds against ACC1 or ACC2 was determined by using ADP-Clo™ kinase assay kit from Promega. The ADP-Glo™ Kinase Assay is a luminescent ADP detection assay to measure enzymatic activity by quantifying the amount of ADP produced during an enzyme reaction. The assay is performed in two steps; first, after the enzyme reaction, an equal volume of ADP-Glo™ Reagent is added to terminate the reaction and deplete the remaining ATP. Second, the Kinase Detection Reagent is added to simultaneously convert ADP to ATP and allow the newly synthesized ATP to be measured using a luciferase/luciferin reaction. Luminescence can be correlated to ADP concentrations by using an ATP-to-ADP conversion curve.
(§2) The detailed procedure is as follows. • a. 4.5 μL/well of ACC1/ACC2 working solution (2.22 nM) was added to a 384-well reaction plate (PerkinElmer, 6007290). • b. The compound (10 mM) was diluted with 100% DMSO 500 times to a concentration of 20 μM, the dilute compound solution was diluted 1:3 in succession in a 384-well dilution plate (3657, corning) to gradient concentrations of 20, 6.67, 2.22, 0.74, 0.25, 0.082, 0.027, 0.009, 0.003, 0.001, 0 μM; • c. 0.5 μL/well of the compound solution (prepared in step b) was added to the 384-well reaction plate (prepared in step a), the plate was centrifuged at 1000 rpm and incubated at 25° C. for 15 minutes; • d. 0.5 μL/well of substrate mixture (ATP (10 mM), Acetyl-CoA (2 mM), NaHCO3 (1000 mM)) was transfered into the 384-well reaction plate, the plate was centrifuged at 1000 rpm and incubated at 25° C. for 30 minutes. The compound final gradient concentrations in the reaction system were 1000, 333.3, 111.1, 37.04, 12.35, 4.12, 1.37, 0.46, 0.15, 0.05, 0 nM. The final concentration of DMSO was 5%; the final concentration of ACC1/ACC2 is 1 nM. • e. 10 μL/well of ADP-Glo solution was transfered into the 384-well reaction plate, the plate was centrifuged at 1000 rpm and incubated at 25° C. for 40 minutes. • f. 20 µL/well of kinase detection reagent was transfered into the 384-well reaction plate, the plate was centrifuged at 1000 rpm and incubated at 25° C. for 40 minutes. • g. Relative Light Units (RLU) was read on an Envision multifunction plate reader. The signal intensity represents the level of ACC1/ACC2 kinase activity.
(§3) The ACC1/ACC2 working solution, substrate mixture, ADP-Glo solution and kinase detection reagent used in the assay are all prepared by using 1× kinase reaction buffer [hydroxyethylpiperazineethanesulfonic acid (HEPES, 50 mM), MgCl2 (2 mM), lauryl polyglycol ether (BRIJ-35, 0.01%), potassium citrate (2 mM), bovine serum albumin (BSA, 50 μg/mL), dithiothreitol (DTT, 2 mM)].
(§4) Data for each concentration, as well as the positive and negative controls were averaged, and the standard deviation was calculated. Percent inhibition was calculated by the formula: 100×(average negative control−compound)/(average negative control−average positive control). The IC50 for each compound was calculated by fitting the data with a nonlinear regression equation: Y=Bottom+(Top−Bottom)/(1+10^((Log IC50−X)×HillSlope)), where X is the log of compound concentration and Y is percent inhibition. 0.1 μM ND-630 was as positive control in the assay.

ACC2 = ACC2 (Homo sapiens (Human), UniProt O00763); experiment: Acetyl-CoA carboxylase inhibition activity assay in vitro (ADP-Glo kinase assay), ACC2; format: biochemical; conditions: 1 nM ACC2, 5% DMSO, 25° C.
Description: as §1, §2, §3, §4

Sequence of ACC2 (O00763 whole entry, species assumed): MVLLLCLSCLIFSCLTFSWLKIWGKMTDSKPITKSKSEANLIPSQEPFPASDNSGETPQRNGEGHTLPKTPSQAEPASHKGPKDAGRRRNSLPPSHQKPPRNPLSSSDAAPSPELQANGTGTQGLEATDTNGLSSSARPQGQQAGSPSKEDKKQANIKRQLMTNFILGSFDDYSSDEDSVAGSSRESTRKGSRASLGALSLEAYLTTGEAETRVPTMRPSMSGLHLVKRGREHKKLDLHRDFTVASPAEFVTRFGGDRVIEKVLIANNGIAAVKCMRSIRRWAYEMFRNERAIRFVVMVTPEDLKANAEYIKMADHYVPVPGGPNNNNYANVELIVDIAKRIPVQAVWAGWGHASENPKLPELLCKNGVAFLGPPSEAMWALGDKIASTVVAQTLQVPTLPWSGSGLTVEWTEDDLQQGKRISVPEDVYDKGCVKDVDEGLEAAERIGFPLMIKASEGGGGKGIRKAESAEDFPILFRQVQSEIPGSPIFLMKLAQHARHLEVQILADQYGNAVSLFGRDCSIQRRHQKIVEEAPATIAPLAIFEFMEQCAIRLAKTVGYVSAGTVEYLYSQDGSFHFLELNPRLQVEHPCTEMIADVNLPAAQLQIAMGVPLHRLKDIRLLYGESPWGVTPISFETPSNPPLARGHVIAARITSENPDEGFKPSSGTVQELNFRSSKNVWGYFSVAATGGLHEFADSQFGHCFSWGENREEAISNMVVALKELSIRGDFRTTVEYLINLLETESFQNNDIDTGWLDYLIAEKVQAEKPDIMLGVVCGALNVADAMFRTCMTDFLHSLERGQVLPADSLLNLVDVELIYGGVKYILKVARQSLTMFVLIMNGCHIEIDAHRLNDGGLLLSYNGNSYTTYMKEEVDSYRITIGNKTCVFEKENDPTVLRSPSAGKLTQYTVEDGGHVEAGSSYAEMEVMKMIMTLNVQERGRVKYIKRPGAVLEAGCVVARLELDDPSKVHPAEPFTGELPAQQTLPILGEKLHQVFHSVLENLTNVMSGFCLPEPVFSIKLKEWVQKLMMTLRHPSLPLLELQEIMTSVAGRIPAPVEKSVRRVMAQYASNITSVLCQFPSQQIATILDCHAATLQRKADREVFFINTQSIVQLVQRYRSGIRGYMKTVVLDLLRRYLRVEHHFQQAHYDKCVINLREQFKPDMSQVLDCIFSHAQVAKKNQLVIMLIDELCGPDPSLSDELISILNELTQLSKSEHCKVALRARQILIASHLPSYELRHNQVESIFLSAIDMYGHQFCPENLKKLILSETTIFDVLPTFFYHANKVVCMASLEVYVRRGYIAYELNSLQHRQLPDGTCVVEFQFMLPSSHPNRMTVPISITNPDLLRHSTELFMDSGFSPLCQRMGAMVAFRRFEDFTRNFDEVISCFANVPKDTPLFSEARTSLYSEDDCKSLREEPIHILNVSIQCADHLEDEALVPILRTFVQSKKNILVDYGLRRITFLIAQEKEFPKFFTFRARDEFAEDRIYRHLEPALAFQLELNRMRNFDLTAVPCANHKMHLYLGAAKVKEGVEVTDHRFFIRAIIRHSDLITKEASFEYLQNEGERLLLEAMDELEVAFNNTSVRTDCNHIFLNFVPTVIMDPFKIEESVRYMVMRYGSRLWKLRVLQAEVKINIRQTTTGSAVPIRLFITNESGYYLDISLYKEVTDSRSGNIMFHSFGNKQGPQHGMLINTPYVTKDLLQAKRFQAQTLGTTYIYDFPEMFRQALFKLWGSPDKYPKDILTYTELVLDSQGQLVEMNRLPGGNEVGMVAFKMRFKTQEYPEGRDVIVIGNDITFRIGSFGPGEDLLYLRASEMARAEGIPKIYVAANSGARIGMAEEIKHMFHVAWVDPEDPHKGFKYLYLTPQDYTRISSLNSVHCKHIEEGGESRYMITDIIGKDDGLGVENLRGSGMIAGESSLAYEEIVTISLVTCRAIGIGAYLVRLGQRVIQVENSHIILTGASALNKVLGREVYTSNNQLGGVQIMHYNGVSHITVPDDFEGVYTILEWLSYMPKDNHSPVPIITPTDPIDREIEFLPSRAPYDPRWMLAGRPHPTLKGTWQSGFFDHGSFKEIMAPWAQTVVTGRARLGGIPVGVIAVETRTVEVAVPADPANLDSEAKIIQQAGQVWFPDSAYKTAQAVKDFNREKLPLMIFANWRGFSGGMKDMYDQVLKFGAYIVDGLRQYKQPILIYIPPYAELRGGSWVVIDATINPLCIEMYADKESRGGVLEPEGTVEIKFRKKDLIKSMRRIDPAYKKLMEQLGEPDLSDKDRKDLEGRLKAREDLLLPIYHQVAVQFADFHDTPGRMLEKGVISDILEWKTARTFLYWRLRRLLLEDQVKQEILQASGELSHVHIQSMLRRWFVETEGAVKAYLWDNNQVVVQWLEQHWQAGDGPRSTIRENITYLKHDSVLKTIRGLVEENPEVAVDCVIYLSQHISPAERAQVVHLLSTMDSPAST

SMILES	IC50 (ACC1) [nM]	IC50 (ACC2) [nM]
COc1ccccc1C(Cn1c(=O)n(C(C)(C)C(=O)O)c(=O)c2c(C)c(-c3ncco3)sc21)O[C@@H]1C[C@@H]2CC(O)(C(F)(F)F)C[C@@H]2C1 (stereo partly drawn) [Example 18, 2-[1-[2-[[(3aR,6aS)-5-hydroxy-5-(trifluoromethyl)-2,3,3a,4,6,6a-hexahydro-1H-pentalen-2-yl]oxy]-2-(2-methoxyphenyl)ethyl]-5-methyl-6-oxazol-2-yl-2,4-dioxo-thieno[2,3-d]pyrimid-3-yl]-2-methyl-propanoic acid]	0.89	–
COc1ccccc1C(Cn1c(=O)n(C(C)(C)C(=O)O)c(=O)c2c(C)c(-c3ncco3)sc21)O[C@@H]1C[C@@H]2CC(O)(CC#N)C[C@@H]2C1 (stereo partly drawn) [Example 27, 2-[1-[2-[[(3aS,6aR)-5-(cyanomethyl)-5-hydroxy-2,3,3a,4,6,6a-hexahydro-1H-pentalen-2-yl]oxy]-2-(2-methoxyphenyl)ethyl]-5-methyl-6-oxazol-2-yl-2,4-dioxo-thieno[2,3-d]pyrimid-3-yl]-2-methyl-propanoic acid]	1.56	4.8
COc1ccccc1C(Cn1c(=O)n(C(C)(C)C(=O)O)c(=O)c2c(C)c(-c3ncco3)sc21)O[C@@H]1C[C@@H]2CC(O)(C3CC3)C[C@@H]2C1 (stereo partly drawn) [Example 23, 2-[1-[2-[[(3aR,6aS)-5-cyclopropyl-5-hydroxy-2,3,3a,4,6,6a-hexahydro-1H-pentalen-2-yl]oxy]-2-(2-methoxyphenyl)ethyl]-5-methyl-6-oxazol-2-yl-2,4-dioxo-thieno[2,3-d]pyrimid-3-yl]-2-methyl-propanoic acid]	0.67	1.13
CCC1(O)C[C@H]2C[C@@H](OC(Cn3c(=O)n(C(C)(C)C(=O)O)c(=O)c4c(C)c(-c5ncco5)sc43)c3ccccc3OC)C[C@H]2C1 (stereo partly drawn) [Example 19, 2-[1-[2-[[(3aR,6aS)-5-ethyl-5-hydroxy-2,3,3a,4,6,6a-hexahydro-1H-pentalen-2-yl]oxy]-2-(2-methoxyphenyl)ethyl)-5-methyl-6-oxazol-2-yl-2,4-dioxo-thieno[2,3-d]pyrimid-3-yl]-2-methyl-propanoic acid]	0.88	5.45
COc1ccccc1C(Cn1c(=O)n(C(C)(C)C(=O)O)c(=O)c2c(C)c(-c3ncco3)sc21)O[C@H]1C[C@H]2CO[C@@H](C1)O2 (some centres unmarked) [Example 32]	1.21	2.74
COc1ccccc1C(Cn1c(=O)n(C(C)(C)C(=O)O)c(=O)c2c(C)c(-c3ncco3)sc21)O[C@H]1C[C@H]2CC(O)C(O)[C@H]2C1 (stereo partly drawn) [Example 22, 2-[1-[2-[[(2S,3aS,6aR)-4,5-dihydroxy-1,2,3,3a,4,5,6,6a-octahydropentalen-2-yl]oxy]-2-(2-methoxyphenyl)ethyl]-5-methyl-6-oxazol-2-yl-2,4-dioxo-thieno[2,3-d]pyrimid-3-yl]-2-methyl-propanoic acid]	1.55	8.44
COc1ccccc1C(Cn1c(=O)n(C(C)(C)C(=O)O)c(=O)c2c(C)c(-c3ncco3)sc21)O[C@@H]1C[C@@H]2CC(O)(C#N)C[C@@H]2C1 (stereo partly drawn) [Example 26, 2-[1-[2-[[(3aR,6aS)-5-cyano-5-hydroxy-2,3,3a,4,6,6a-hexahydro-1H-pentalen-2-yl]oxy]-2-(2-methoxyphenyl)ethyl]-5-methyl-6-oxazol-2-yl-2,4-dioxo-thieno[2,3-d]pyrimid-3-yl]-2-methyl-propanoic acid]	1.43	5.4

Other lines, results leading:

IC50 (ACC1) [nM]	IC50 (ACC2) [nM]	SMILES
1.76	4.24	COc1ccccc1C(Cn1c(=O)n(C(C)(C)C(=O)O)c(=O)c2c(C)c(-c3ncco3)sc21)OC1CC2COCC2C1 (centres unmarked) [Example 13, 2-[1-[2-(3,3a,4,5,6,6a-hexahydro-1H-cyclopenteno[c]furan5-oxy)-2-(2-methoxyphenyl)ethyl)-5-methyl-6-oxazol-2-yl-2,4-dioxo-thieno[2,3-d]pyrimid-3-yl]-2-methyl-propanoic acid]
1.43	4.07	COc1ccccc1C(Cn1c(=O)n(C(C)(C)C(=O)O)c(=O)c2c(C)c(-c3ncco3)sc21)O[C@@H]1C[C@@H]2CC(F)(F)C[C@@H]2C1 (stereo partly drawn) [Example 21, 2-[1-[2-[[(3aR,6aS)-5,5-difluoro-2,3,3a,4,6,6a-hexahydro-1H-pentalen-2-yl]oxy]-2-(2-methoxyphenyl)ethyl)-5-methyl-6-oxazol-2-yl-2,4-dioxo-thieno[2,3-d]pyrimid-3-yl]-2-methyl-propanoic acid]
0.47	2.19	COc1ccccc1C(Cn1c(=O)n(C(C)(C)C(=O)O)c(=O)c2c(C)c(-c3ncco3)sc21)O[C@@H]1C[C@@H]2C[C@@H](S(C)(=O)=O)C[C@@H]2C1 (stereo partly drawn) [Example 29, 2-[1-[2-[[(3aR,6aS)-5-methylsulfonyl-1,2,3,3a,4,5,6,6a-octahydropentalen-2-yl]oxy]-2-(2-methoxyphenyl)ethyl]-5-methyl-6-oxazol-2-yl-2,4-dioxo-thieno[2,3-d]pyrimid-3-yl]-2-methyl-propanoic acid]
0.93	–	COc1ccccc1C(Cn1c(=O)n(C(C)(C)C(=O)O)c(=O)c2c(C)c(-c3ncco3)sc21)O[C@H]1C[C@H]2C[C@@H](O)C[C@H]2C1 (stereo partly drawn) [Example 1, 2-[1-[2-[[(3aS,6aR)-5-hydroxy-1,2,3,3a,4,5,6,6a-octahydropentalen-2-yl]oxy]-2-(2-methoxyphenyl)ethyl]-5-methyl-6-oxazol-2-yl-2,4-dioxo-thieno[2,3-d]pyrimid-3-yl]-2-methyl-propanoic acid]
1.64	6.53	COc1ccccc1C(Cn1c(=O)n(C(C)(C)C(=O)O)c(=O)c2c(C)c(-c3ncco3)sc21)O[C@H]1C[C@H]2CC(C#N)C[C@H]2C1 (some centres unmarked) [Example 15, 2-[1-[2-[(5-cyano-1,2,3,3a,4,5,6,6a-octahydropentalen-2-yl)oxy]-2-(2-methoxyphenyl)ethyl]-5-methyl-6-oxazol-2-yl-2,4-dioxo-thieno[2,3-d]pyrimid-3-yl]-2-methyl-propanoic acid]
2.24	–	COc1ccccc1C(Cn1c(=O)n(C(C)(C)C(=O)O)c(=O)c2c(C)c(-c3ncco3)sc21)O[C@H]1C[C@H]2C[C@H](F)C[C@H]2C1 (stereo partly drawn) [Example 17, 2-[1-[2-[[(3aR,6aS)-5-fluoro-1,2,3,3a,4,5,6,6a-octahydropentalen-2-yl]oxy]-2-(2-methoxyphenyl)ethyl)-5-methyl-6-oxazol-2-yl-2,4-dioxo-thieno[2,3-d]pyrimid-3-yl]-2-methyl-propanoic acid]
1.43	–	COc1ccccc1C(Cn1c(=O)n(C(C)(C)C(=O)O)c(=O)c2c(C)c(-c3ncco3)sc21)O[C@@H]1C[C@@H]2CC(C)(O)C[C@@H]2C1 (stereo partly drawn) [Example 14, 2-[1-[2-[[(3aR,6aS)-5-hydroxy-5-methyl-2,3,3a,4,6,6a-hexahydro-1H-pentalen-2-yl]oxy]-2-(2-methoxyphenyl)ethyl]-5-methyl-6-oxazol-2-yl-2,4-dioxo-thieno[2,3-d]pyrimid-3-yl]-2-methyl-propanoic acid]
0.81	1.76	COc1ccccc1C(Cn1c(=O)n(C(C)(C)C(=O)O)c(=O)c2c(C)c(-c3ncco3)sc21)OC1CC2CN(S(C)(=O)=O)CC2C1 (centres unmarked) [Example 10, 2-[1-[2-(2-methoxyphenyl)-2-[(2-methylsulfonyl-3,3a,4,5,6,6a-hexahydro-1H-cyclopenteno[c]pyrrole-5-yl)oxy]ethyl]-5-methyl-6-oxazol-2-yl-2,4-dioxo-thieno[2,3-d]pyrimid-3-yl]-2-methyl-propanoic acid]
